Data on 14 compounds can be found in PMC9137581, “Identification of a Novel Class of Anti-Melanogenic Compounds, (Z)-5-(Substituted benzylidene)-3-phenyl-2-thioxothiazolidin-4-one Derivatives, and Their Reactive Oxygen Species Scavenging Activities” (Antioxidants, 2022).

Like-named read-outs stand apart in the source and are kept apart here.

The target in assay [1] is T1, mushroom tyrosinase (Agaricus bisporus, UniProt C7FF04).
T1 construct: purchased Sigma-Aldrich
Briefly: Mushroom tyrosinase inhibition assay (L-tyrosine substrate). Type of assay: biochemical. To be noted: L-tyrosine substrate; means ± SEMs of triplicate determinations. As for the experimental part: In order to examine the inhibitory effect of the (Z)-BPTT analogs on tyrosinase activity, commercially available mushroom tyrosinase (Sigma-Aldrich, St. Louis, MO, USA) was used. The mushroom tyrosinase-inhibitory activities of the analogs were determined as described previously with modification. Briefly, 20 µL (20 units) of an aqueous mushroom tyrosinase solution was added to each well of a 96-well microplate containing 170 µL of a substrate mixture consisting of 345 μM of L-tyrosine solution, 17.2 mM phosphate buffer (pH 6.5), and 10 µL of a (Z)-BPTT analog solution at different concentrations or 10 µL of a kojic acid solution (2, 10, or 50 μM). After incubating the assay mixtures for 30 min at 37 °C, the remaining tyrosinase activities were calculated from the amounts of dopachrome that were formed as determined by measuring their absorbance at 492 nm using a microplate reader (VersaMax™, Molecular Devices, Sunnyvale, CA, USA). The curves of the IC50 values that were derived from the X-axis of the inhibitor concentration versus the amount of product that was produced were determined by aligning the dose–response curve with the Y-axis. Inhibition experiments were performed in triplicate using three to six different concentrations of the (Z)-BPTT analogs or kojic acid. Log–linear curves and their equations were determined by using inhibition percentages at three to six analog concentrations. The individual IC50 values were determined by reading the concentrations on the Y-axis at 50% inhibition. The results are the means of three independent experiments.
The tyrosinase-inhibitory activities were screened against mushroom tyrosinase using L-tyrosine as a substrate, as previously described. Kojic acid, a representative tyrosinase inhibitor, was used as a positive control. […]. All 13 of the (Z)-BPTT analogs inhibited tyrosinase activity in a concentration-dependent manner. The IC50 values are shown in Table 2, along with the analog substitutions.

Assay [2] is described as follows: ABTS free radical scavenging activity assay. As to conditions: 100 µM, 2 min in the dark. As for the experimental part: ABTS free radical scavenging activity was used to evaluate the antioxidant activities of analogs 1–13, as previously described. […] This ABTS free radical solution was then diluted with absolute methanol to an absorbance of 0.70 ± 0.02 at 734 nm. Aliquots (10 µL) of the test samples (10% DMSO + 90% EtOH) were added at a final concentration of 100 µM to 90 µL of the diluted ABTS free radical solution and incubated for 2 min in the dark at room temperature. Absorbances were then measured at 734 nm using a VersaMax™ microplate reader (Molecular Devices, Sunnyvale, CA, USA). The ABTS free radical scavenging activities of the test analogs were calculated using the following formula:Scavenging activity (%) = (Ac − As) × 100/Ac where Ac is the optical density of the non-treated control and As is the optical density of the tested material.
The effects of analogs 1–13 on ABTS (2,2′-azino-bis(3-ethylbenzothiazoline-6-sulfonic acid)) free radical scavenging activity were investigated using trolox as a positive reference control. The concentrations of the analogs and trolox in the test samples were 100 µM. The free radical scavenging activities were assessed by measuring the optical densities at 734 nm after standing in the dark for 2 min. […] Analogs 7–10, with no hydroxyl groups on the β-phenyl ring, had weak ABTS and DPPH radical scavenging activities.

Assay [3] in a line: DPPH radical scavenging activity assay. As to conditions: 1 mM, 30 min in the dark. The method, then: The effects of the (Z)-BPTT analogs 1–13 on DPPH radical scavenging activities were investigated as previously described with slight modification. Briefly, 180 μL of 0.2 mM DPPH in methanol was added to 96-well plates and then 20 μL of one of the (Z)-BPTT analogs 1–13 (10 mM in DMSO) or the positive control (10 mM L-ascorbic acid in distilled water) was added and mixed. The 96-well plates were incubated in the dark for 30 min and then the well optical densities were measured at 517 nm using a VersaMax™ microplate reader (Molecular Devices, Sunnyvale, CA, USA). All of these experiments were performed independently in triplicate. The DPPH radical scavenging activities of the analogs were calculated using the following formula:Scavenging activity (%) = (Ac − As) × 100/Ac where Ac is the optical density of the non-treated control and As is the optical density of the tested material.
The DPPH (2,2-diphenyl-1-picrylhydrazyl) radical scavenging abilities of the (Z)-BPTT analogs were investigated using L-ascorbic acid (vitamin C) as a positive control. The final concentrations of the analogs and of the positive control in the test samples and in the DPPH methanol solution were 1 and 0.18 mM, respectively. The scavenging activities of the analogs were assessed by measuring their optical densities at 517 nm after standing the samples in the dark for 30 min.

The test system of another assay is B16F10 cells. Briefly: Melanin content assay in α-MSH plus IBMX-stimulated cells. To be noted: 48 h, B16F10 cells. In kind it is cell-based, murine. As for the experimental part:
Briefly, B16F10 cells were seeded at a density of 1 × 10^5 cells per well in 6-well plates and allowed to adhere to the well bases under the same conditions that were used for cell culturing. […] In order to determine the melanin contents, the B16F10 cells that were exposed to α-MSH and IBMX for 48 h were rinsed with PBS twice and incubated in 200 µL of 1 N NaOH solution containing 10% dimethyl sulfoxide (DMSO) for 1 h at 60 °C. The cell lysates were transferred to a 96-well plate and the absorbances at 405 nm were measured using a microplate reader (VersaMax™, Molecular Devices, Sunnyvale, CA, USA). These experiments were performed individually in triplicate. B16F10 cells were seeded in 6-well culture plates and pretreated with analogs 1, 3, and 6 at concentrations of 0, 5, 10, or 20 µM and with analog 2 at 0, 2.5, 5, or 10 µM for 1 h. α-Melanocyte-stimulating hormone (α-MSH; 1 µM) and 3-isobutyl-1-methylxanthine (IBMX; 200 µM) were added sequentially in order to enhance melanin production. After incubation for 48 h at 37 °C, the melanin contents were assessed by measuring the well optical densities at 405 nm using a microplate reader. Kojic acid (10 or 20 µM) was used as a positive control.

Assay [4] addresses mushroom tyrosinase. As to conditions: read-out: IC50 against mushroom tyrosinase, cited from earlier work.
Assay [5] concerns UVB-irradiated HRM2 hairless mice. Details: method as in PMID 30554432. As to conditions: ref [31]; cited from earlier work.
Assay [6] has as its system B16F10 murine melanoma cells. Set-up: method as in PMID 34356311. As to conditions: ref [32]; cited from earlier work.

T1 sequence (C7FF04 1-392 limits assumed): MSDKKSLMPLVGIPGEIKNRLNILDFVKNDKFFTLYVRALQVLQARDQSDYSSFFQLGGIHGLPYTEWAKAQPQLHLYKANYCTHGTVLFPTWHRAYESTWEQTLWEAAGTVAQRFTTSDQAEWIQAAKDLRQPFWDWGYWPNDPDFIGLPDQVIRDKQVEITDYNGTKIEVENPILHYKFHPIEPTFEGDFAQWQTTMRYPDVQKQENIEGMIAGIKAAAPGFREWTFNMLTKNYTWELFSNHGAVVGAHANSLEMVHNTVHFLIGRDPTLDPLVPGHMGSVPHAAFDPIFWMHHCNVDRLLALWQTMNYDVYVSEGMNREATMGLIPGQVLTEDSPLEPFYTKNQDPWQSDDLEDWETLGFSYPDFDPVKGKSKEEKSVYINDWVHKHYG

The compound `COc1cc(/C=C2\SC(=S)N(c3ccccc3)C2=O)cc(OC)c1O` [Analog 11, (Z)-5-(4-Hydroxy-3,5-dimethoxybenzylidene)-3-phenyl-2-thioxothiazolidin-4-one] showed an IC50 at mushroom tyrosinase [1] greater than 200 µM. For the same compound, the “ABTS free radical scavenging activity” value in assay [2] worked out at 57.2%.
Compound `COc1cc(/C=C2\SC(=S)N(c3ccccc3)C2=O)ccc1O` [Analog 4, (Z)-5-(4-Hydroxy-3-methoxybenzylidene)-3-phenyl-2-thioxothiazolidin-4-one] showed an IC50 on mushroom tyrosinase [1] of 80 ± 3.3 µM. Besides, the “DPPH radical scavenging activity” value in assay [3] came to 78.7%. Further, the “ABTS free radical scavenging activity” value in assay [2] is 61.5%.
In the same order, the values of `CCOc1cc(/C=C2\SC(=S)N(c3ccccc3)C2=O)ccc1O` [Analog 5, (Z)-5-(3-Ethoxy-4-hydroxybenzylidene)-3-phenyl-2-thioxothiazolidin-4-one] are greater than 200 µM, 77.5% and 51.2%.
On to `O=C1O[C@H]([C@@H](O)CO)C(O)=C1O` [L-ascorbic acid, reference compound], for which the “DPPH radical scavenging activity” value in assay [3] is given as 96.9%.
Take `COc1cc(/C=C2\SC(=S)N(c3ccccc3)C2=O)cc(OC)c1OC` [Analog 10, (Z)-3-Phenyl-2-thioxo-5-(3,4,5-trimethoxybenzylidene)thiazolidin-4-one]: at mushroom tyrosinase [1], the 50% inhibitory concentration (IC50) was greater than 200 µM.
With `O=c1cc(CO)occ1O` [kojic acid, reference compound], the figures for the “reduction of α-MSH plus IBMX-induced increase in melanin content” value in the assay with B16F10 cells (10 µM) and in the assay on B16F10 cells (20 µM) were 21.8% and 22.9%, respectively.
As for `COc1ccc(/C=C2\SC(=S)N(c3ccccc3)C2=O)c(OC)c1` [Analog 9, (Z)-5-(2,4-Dimethoxybenzylidene)-3-phenyl-2-thioxothiazolidin-4-one], it took 22.1 ± 4.23 µM to reach half-maximal inhibition against mushroom tyrosinase [1] (IC50).
Compound `O=C1/C(=C/c2cc(Br)c(O)c(Br)c2)SC(=S)N1c1ccccc1` [Analog 13, (Z)-5-(3,5-Dibromo-4-hydroxybenzylidene)-3-phenyl-2-thioxothiazolidin-4-one] yielded an IC50 on mushroom tyrosinase [1] of 78.8 ± 8.63 µM. Further, the “ABTS free radical scavenging activity (in words)” value in assay [2] is on record as “slightly decreased”.
Regarding `COc1ccc(/C=C2\SC(=S)NC2=O)cc1O` [5-HMT, (Z)-5-(3-hydroxy-4-methoxybenzylidene)-2-thioxothiazolidin-4-one], at mushroom tyrosinase [4] (ref [31]), the IC50 was 18.1 ± 1 µM. For the same compound, the “skin effect in vivo” value in assay [5] was “skin-lighting effect”.
With `Cc1c(C)c2c(c(C)c1O)CCC(C)(C(=O)O)O2` (stereo not drawn) [trolox, reference compound], the “ABTS free radical scavenging activity” value in assay [2] came out at 99.8%.
`COc1ccc(/C=C2\SC(=S)N(c3ccccc3)C2=O)cc1OC` [Analog 8, (Z)-5-(3,4-Dimethoxybenzylidene)-3-phenyl-2-thioxothiazolidin-4-one] showed an IC50 against mushroom tyrosinase [1] of 94.3 ± 7.7 µM.
On the same count and under the same terms, to `COc1ccc(/C=C2\SC(=S)N(c3ccccc3)C2=O)cc1` [Analog 7, (Z)-5-(4-Methoxybenzylidene)-3-phenyl-2-thioxothiazolidin-4-one] belongs greater than 200 µM.
Turning to `O=c1/c(=C/c2ccc(O)cc2O)sc2nc3ccccc3n12` [Compound I, (Z)-2-(2,4-dihydroxybenzylidene)benzo[4,5]imidazo[2,1-b]thiazol-3(2H)-one], the half-maximal inhibitory concentration (IC50) on mushroom tyrosinase [4] (ref [32]) is 5 ± 0.38 µM. In assay [6], the effects in cells result was “anti-tyrosinase and anti-melanogenic effects”.
Take `O=C1/C(=C/c2ccc(O)c(Br)c2)SC(=S)N1c1ccccc1` [Analog 12, (Z)-5-(3-Bromo-4-hydroxybenzylidene)-3-phenyl-2-thioxothiazolidin-4-one]: 65.5 ± 9.4 µM corresponded to half-maximal inhibition at mushroom tyrosinase [1] (IC50). Also, the “ABTS free radical scavenging activity (in words)” value in assay [2] is listed as “did not influence”.
